Results: patent US12091402B2 (Avilar Therapeutics, Inc., priority 2021, dated 2024)
Where two headings read alike, the source gives them in different places. Where a SMILES comes first, the peptide text is derived from it. Bridges are numbered along the chain shown (N, C = ends). [ ]: non-standard residue; d: D form. Pro(4S-NH2) = N[C@@H]1CN[C@H](C(=O)O)C1; hSer = N[C@@H](CCO)C(=O)O

Target: IgG
Assay: Affinity to IgG by surface plasmon resonance (SPR)
Format: binding
Description: Immobilization levels ranging from 1000-1300 resonance units (RU) are obtained. The running buffer is 10 mM HEPES, pH 7.4, 400 mM NaCl, 0.005% P20, […].

[1] = Biacore 8K, 25° C., IgG on CM5 chip, read-out: IgG SPR Binding Kd

CC(C)C[C@@H]1NC(=O)[C@H](Cc2cnc[nH]2)NC(=O)[C@H](Cc2c[nH]c3ccccc23)NC(=O)[C@H](CCO)NC(=O)[C@@H]2CSSC[C@H](NC(=O)[C@H](Cc3c[nH]c4ccccc34)NC(=O)[C@H](C(C)C)NC(=O)[C@H](CC(C)C)NC(=O)[C@H](CCC(=O)O)NC(=O)CNC1=O)C(=O)N[C@@H]([C@@H](C)O)C(=O)N1CCC[C@@H]1C(=O)N1C[C@@H](N)C[C@H]1C(=O)N[C@@H](CC(=O)O)C(=O)N2 [Intermediate 21] (cyclo(CT[dP][Pro(4S-NH2)]DC[hSer]WHLGELVW); disulfide 1-6)
Kd [1]: < 100 nM | Kd (SPR, read-out: IgG KD): < 100 nM

C#CCCCC(=O)NCCOCCOCCOCCOCCN[C@@H](CC(=O)O)C(=O)N[C@H]1CSSC[C@@H](C(=O)N[C@H](C(N)=O)[C@@H](C)O)NC(=O)[C@H](Cc2c[nH]c3ccccc23)NC(=O)[C@H](C(C)C)NC(=O)[C@H](CC(C)C)NC(=O)[C@H](CCC(=O)O)NC(=O)CNC(=O)[C@H](CC(C)C)NC(=O)[C@H](Cc2cnc[nH]2)NC(=O)[C@H](Cc2c[nH]c3ccccc23)NC(=O)[C@H](C)NC1=O [Intermediate 3]
Kd [1]: < 100 nM

CC(C)C[C@@H]1NC(=O)[C@H](Cc2cnc[nH]2)NC(=O)[C@H](Cc2c[nH]c3ccccc23)NC(=O)[C@H](C)NC(=O)[C@@H]2CSSC[C@H](NC(=O)[C@H](Cc3c[nH]c4ccccc34)NC(=O)[C@H](C(C)C)NC(=O)[C@H](CC(C)C)NC(=O)[C@H](CCC(=O)O)NC(=O)CNC1=O)C(=O)N[C@@H]([C@@H](C)O)C(=O)N1CCC[C@@H]1C(=O)N1C[C@@H](N)C[C@H]1C(=O)N[C@@H](CC(N)=O)C(=O)N2 [Intermediate 13] (cyclo(AWHLGELVWCT[dP][Pro(4S-NH2)]NC); disulfide 10-15)
Kd [1]: < 100 nM | Kd (SPR, read-out: IgG KD): < 100 nM

CC(C)C[C@@H]1NC(=O)[C@H](Cc2cnc[nH]2)NC(=O)[C@H](Cc2c[nH]c3ccccc23)NC(=O)[C@H](C)NC(=O)[C@@H]2CSSC[C@H](NC(=O)[C@H](Cc3c[nH]c4ccc(Cl)cc34)NC(=O)[C@H](C(C)C)NC(=O)[C@H](CC(C)C)NC(=O)[C@H](CCC(=O)O)NC(=O)CNC1=O)C(=O)N[C@@H]([C@@H](C)O)C(=O)N1CCC[C@@H]1C(=O)N1C[C@@H](N)C[C@H]1C(=O)N[C@@H](CC(=O)O)C(=O)N2 [Intermediate 29]
Kd [1]: < 100 nM | Kd (SPR, read-out: IgG KD): < 100 nM

CC(C)C[C@@H]1NC(=O)[C@H](Cc2cnc[nH]2)NC(=O)[C@H](Cc2c[nH]c3ccccc23)NC(=O)[C@H](C)NC(=O)[C@@H]2CSSC[C@H](NC(=O)[C@H](Cc3c[nH]c4ccccc34)NC(=O)[C@H](C(C)C)NC(=O)[C@H](CC(C)C)NC(=O)[C@H](CCC(=O)N(C)C)NC(=O)CNC1=O)C(=O)N[C@@H]([C@@H](C)O)C(=O)N1CCC[C@@H]1C(=O)N1C[C@@H](N)C[C@H]1C(=O)N[C@@H](CC(N)=O)C(=O)N2 [Intermediate 27] (cyclo(AWHLGE(NMe2)LVWCT[dP][Pro(4S-NH2)]NC); disulfide 10-15)
Kd [1]: < 100 nM | Kd (SPR, read-out: IgG KD): < 100 nM

C#CCCCC(=O)NCCOCCC(=O)N[C@H]1C[C@H]2C(=O)N[C@@H](CC(=O)O)C(=O)N[C@H]3CSSC[C@H](NC(=O)[C@H](Cc4c[nH]c5ccccc45)NC(=O)[C@H](C(C)C)NC(=O)[C@H](CC(C)C)NC(=O)[C@H](CCC(=O)O)NC(=O)CNC(=O)[C@H](CC(C)C)NC(=O)[C@H](Cc4cnc[nH]4)NC(=O)[C@H](Cc4c[nH]c5ccccc45)NC(=O)[C@H](C)NC3=O)C(=O)N[C@@H]([C@@H](C)O)C(=O)N3CCC[C@@H]3C(=O)N2C1 [Intermediate 7]
Kd [1]: < 100 nM

CNC(=O)CC[C@@H]1NC(=O)CNC(=O)[C@H](CC(C)C)NC(=O)[C@H](Cc2cnc[nH]2)NC(=O)[C@H](Cc2c[nH]c3ccccc23)NC(=O)[C@H](C)NC(=O)[C@@H]2CSSC[C@H](NC(=O)[C@H](Cc3c[nH]c4ccccc34)NC(=O)[C@H](C(C)C)NC(=O)[C@H](CC(C)C)NC1=O)C(=O)N[C@@H]([C@@H](C)O)C(=O)N1CCC[C@@H]1C(=O)N1C[C@@H](N)C[C@H]1C(=O)N[C@@H](CC(=O)O)C(=O)N2 [Intermediate 22]
Kd [1]: < 100 nM | Kd (SPR, read-out: IgG KD): < 100 nM
